Source: ChEMBL document CHEMBL1909640, “Mode of action investigation for the antibacterial cationic anthraquinone analogs” (2011)
Activity calls are given as the source filed them. The rule behind the calls is not given here.

Tests used:
[1] = system: Escherichia coli; assay: Induction of redox process disruption in Escherichia coli ATCC 25922 at 4 ug/mL after 6 hrs by CTC dye based assay; type: functional, organism-based
[2] = system: Staphylococcus aureus; assay: Induction of redox process disruption in Staphylococcus aureus ATCC 25923 at 0.064 ug/mL after 6 hrs by CTC dye based assay; type: functional, organism-based
[3] = system: Escherichia coli; assay: Induction of plasma membrane disruption in Escherichia coli ATCC 25922 at 4 ug/mL after 2 hrs by Sytox dye based assay; type: functional, organism-based
[4] = system: Staphylococcus aureus; assay: Induction of plasma membrane disruption in Staphylococcus aureus ATCC 25923 at 0.064 ug/mL after 2 hrs by Sytox dye based assay; type: functional, organism-based
[5] = system: Escherichia coli; assay: Induction of plasma membrane disruption in Escherichia coli ATCC 25922 a 4 ug/mL after 10 mins by Sytox dye based assay; type: functional, organism-based
[6] = system: Staphylococcus aureus; assay: Induction of plasma membrane disruption in Staphylococcus aureus ATCC 25923 at 8 ug/mL after 10 mins by Sytox dye based assay; type: functional, organism-based
[7] = system: Staphylococcus aureus; assay: Induction of redox process disruption in Staphylococcus aureus ATCC 25923 at 8 ug/mL after 6 hrs by CTC dye based assay; type: functional, organism-based
[8] = system: Escherichia coli; assay: Induction of plasma membrane disruption in Escherichia coli ATCC 25922 at 2 mg/mL after 10 mins by Sytox dye based assay; type: functional, organism-based
[9] = system: Staphylococcus aureus; assay: Antibacterial activity against Staphylococcus aureus ATCC 25923 after 12 to 18 hrs by broth dilution method; type: functional
[10] = system: Escherichia coli; assay: Antibacterial activity against Escherichia coli ATCC 25922 after 12 to 18 hrs by broth dilution method; type: functional
[11] = system: Escherichia coli; assay: Induction of redox process disruption in Escherichia coli ATCC 25922 at 4 ug/mL after 2 hrs by CTC dye based assay; type: functional, organism-based
[12] = system: Staphylococcus aureus; assay: Induction of plasma membrane disruption in Staphylococcus aureus ATCC 25923 at 8 ug/mL after 2 hrs by Sytox dye based assay; type: functional, organism-based
[13] = system: Staphylococcus aureus; assay: Induction of redox process disruption in Staphylococcus aureus ATCC 25923 at 0.064 ug/mL after 2 hrs by CTC dye based assay; type: functional, organism-based
[14] = system: Escherichia coli; assay: Induction of redox process disruption in Escherichia coli ATCC 25922 at 2 mg/mL after 2 hrs by CTC dye based assay; type: functional, organism-based
[15] = system: Escherichia coli; assay: Induction of redox process disruption in Escherichia coli ATCC 25922 at 2 mg/mL after 6 hrs by CTC dye based assay; type: functional, organism-based
[16] = system: Escherichia coli; assay: Induction of plasma membrane disruption in Escherichia coli ATCC 25922 at 2 mg/mL after 2 hrs by Sytox dye based assay; type: functional, organism-based
[17] = system: Staphylococcus aureus; assay: Induction of redox process disruption in Staphylococcus aureus ATCC 25923 at 8 ug/mL after 2 hrs by CTC dye based assay; type: functional, organism-based
[18] = system: Staphylococcus aureus; assay: Induction of plasma membrane disruption in Staphylococcus aureus ATCC 25923 at 0.064 ug/mL after 10 mins by Sytox dye based assay; type: functional, organism-based

CCCCCCCCn1n[n+](CC)c2c1C(=O)c1ccccc1C2=O.[Cl-]
Activity [1]: inactive | Activity [2]: inactive | Activity [3]: inactive | Activity [4]: inactive | Activity [5]: inactive | Activity [6]: inactive | Activity [7]: Active | Activity [8]: Active | MIC [9]: 0.25 µg/mL | MIC [10]: ≥ 250 µg/mL | Activity [11]: inactive | Activity [12]: inactive | Activity [13]: inactive | Activity [14]: Active | Activity [15]: Active | Activity [16]: Active | Activity [17]: Active | Activity [18]: inactive

CCCCCCCCCCCCCCCCn1n[n+](C)c2c1C(=O)c1ccccc1C2=O.[Cl-]
Activity [1]: inactive | Activity [2]: inactive | Activity [3]: inactive | Activity [4]: inactive | Activity [5]: inactive | Activity [6]: inactive | Activity [7]: Active | Activity [8]: Active | MIC [9]: 0.25 µg/mL | MIC [10]: ≥ 250 µg/mL | Activity [11]: inactive | Activity [12]: inactive | Activity [13]: inactive | Activity [14]: Active | Activity [15]: Active | Activity [16]: Active | Activity [17]: Active | Activity [18]: inactive

CCCCCCCCCCn1n[n+](C)c2c1C(=O)c1ccccc1C2=O.[Cl-]
Activity [1]: inactive | Activity [2]: inactive | Activity [3]: inactive | Activity [4]: inactive | Activity [5]: inactive | Activity [6]: inactive | Activity [7]: Active | Activity [8]: Active | MIC [9]: 0.032 µg/mL | MIC [10]: 32 µg/mL | Activity [11]: inactive | Activity [12]: inactive | Activity [13]: inactive | Activity [14]: Active | Activity [15]: Active | Activity [16]: Active | Activity [17]: Active | Activity [18]: inactive

CCCCCCCCn1n[n+](C)c2c1C(=O)c1ccccc1C2=O.[Cl-]
Activity [1]: inactive | Activity [2]: inactive | Activity [3]: inactive | Activity [4]: inactive | Activity [5]: inactive | Activity [6]: inactive | Activity [7]: Active | Activity [8]: Active | MIC [9]: 0.032 µg/mL | MIC [10]: 16 µg/mL | Activity [11]: inactive | Activity [12]: inactive | Activity [13]: inactive | Activity [14]: Active | Activity [15]: Active | Activity [16]: Active | Activity [17]: Active | Activity [18]: inactive

CCCCCCCCCCCCn1n[n+](C)c2c1C(=O)c1ccccc1C2=O.[Cl-]
Activity [1]: inactive | Activity [2]: inactive | Activity [3]: inactive | Activity [4]: inactive | Activity [5]: inactive | Activity [6]: inactive | Activity [7]: Active | Activity [8]: Active | MIC [9]: 0.064 µg/mL | MIC [10]: 16 µg/mL | Activity [11]: inactive | Activity [12]: inactive | Activity [13]: inactive | Activity [14]: Active | Activity [15]: Active | Activity [16]: Active | Activity [17]: Active | Activity [18]: inactive

Hexadecyltrimethylammonium bromide
Activity [8]: Active | Activity [16]: Active

CCCCCCCCCCCn1n[n+](C)c2c1C(=O)c1ccccc1C2=O.[Cl-]
Activity [1]: inactive | Activity [2]: inactive | Activity [3]: inactive | Activity [4]: inactive | Activity [5]: inactive | Activity [6]: inactive | Activity [7]: Active | Activity [8]: Active | MIC [9]: 0.25 µg/mL | MIC [10]: 32 µg/mL | Activity [11]: inactive | Activity [12]: inactive | Activity [13]: inactive | Activity [14]: Active | Activity [15]: Active | Activity [16]: Active | Activity [17]: Active | Activity [18]: inactive

CCCCCCCCCn1n[n+](C)c2c1C(=O)c1ccccc1C2=O.[Cl-]
Activity [1]: inactive | Activity [2]: inactive | Activity [3]: inactive | Activity [4]: inactive | Activity [5]: inactive | Activity [6]: inactive | Activity [7]: Active | Activity [8]: Active | MIC [9]: 0.032 µg/mL | MIC [10]: 64 µg/mL | Activity [11]: inactive | Activity [12]: inactive | Activity [13]: inactive | Activity [14]: Active | Activity [15]: Active | Activity [16]: Active | Activity [17]: Active | Activity [18]: inactive
